Laboratory results taken from patent US6177438A, “Morphinan derivatives and pharmaceutical use thereof” (priority 1993, dated 2001).
Counter-ions that a name gives are not always drawn. Like-named read-outs stand apart in the source and are kept apart here.

Columns and labels:
[1] = test system: extracted mouse vas deferens preparation; experiment: Opioid activity test using an extracted mouse vas deferens preparation (suppression of electrically induced contractions); design: species or system male ddy mouse; conditions: electrical stimulus 0.1 Hz, 37° C.
Experimental: (§1) A male ddy mouse was used in this test. The vas deferens extracted from the animal was suspended in a Magnus tube filled with Krebes-Henseleit solution (NaCl 118 mM; KCl 4.7 mM; CaCl2 2.5 mM; KH2 PO4 1.1 mM; NaHCO3 25 mM; Glucose 11 mM) warmed to 37° C. and ventilated with 5% carbon dioxide and 95% oxygen. Electrical stimulus was performed at 0.1 Hz for 5.0 ms by means of ring-shaped platinum electrodes located above and below. Tissue contractions were recorded on a polygraph using an isometric transducer.
(§2) After adequately washing with nutrient solution and the contraction reaction stabilized, the μ agonist, naloxone, the δ agonist, NTI, or the κ agonist, norBNI, was added after which the test compound was again cumulatively added after roughly 20 minutes. The Ke value was calculated using the following calculation formula from the difference in the efficacies of both agonists.

κ receptor = biological target: T1, κ receptor (Mus musculus, UniProt P33534); experiment: Opioid activity test using an extracted mouse vas deferens preparation, Ke with norBNI; design: species or system male ddy mouse; conditions: for receptor selectivity of agonist (κ): in words; for Ke, norBNI: κ, norBNI added
T1 construct: from tissue; host or cells: mouse (male ddy) vas deferens
T1 sequence (P33534 whole entry): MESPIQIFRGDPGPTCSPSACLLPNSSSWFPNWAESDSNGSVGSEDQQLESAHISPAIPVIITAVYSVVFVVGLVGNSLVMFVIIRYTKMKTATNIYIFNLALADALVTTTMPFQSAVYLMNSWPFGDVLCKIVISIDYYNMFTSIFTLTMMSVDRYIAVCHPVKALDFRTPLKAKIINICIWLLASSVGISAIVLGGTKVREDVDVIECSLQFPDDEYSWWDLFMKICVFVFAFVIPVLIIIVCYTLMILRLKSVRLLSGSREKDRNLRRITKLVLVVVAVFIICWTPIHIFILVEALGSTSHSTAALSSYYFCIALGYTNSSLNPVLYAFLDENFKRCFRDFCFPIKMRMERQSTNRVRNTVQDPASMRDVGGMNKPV
Experimental: as §1, §2
Ke=[Conc. of added agonist]/(IC50 ratio-1)
IC50 ratio=IC50 in the presence of agonist/IC50 in the absence of agonist

[2] = test system: acetic acid-induced writhing in ddy mice; experiment: animal or person; format: in vivo, 5 week old ddy mice; conditions: for ED50: s.c. 15 minutes before acetic acid
Experimental: 5 week old ddy mice were used in this test. After intraperitoneal administration of 0.1 ml of 0.6% aqueous acetic acid per 10 g of body weight, the number of writhing reactions that occurred in 10 minutes starting 10 minutes after administration was evaluated for the indicator. The test drug was administered subcutaneously into the backs of the animals 15 minutes before administration of acetic acid.

[3] = Diuretic action (urine output for 5 hours after physiological saline loading in rats); format: in vivo, male Wistar rats; conditions: for ED (200% urine output) / ED (500% urine output): Rattus norvegicus, sc, 5 hours after saline 20 ml/kg p.o.; for ED (200% urine output): dose giving urine output of 200 (non-dosed group = 100); for ED (500% urine output): dose giving urine output of 500 (non-dosed group = 100)
Experimental: 7-8 week old male Wistar rats were used in this test after prohibiting from drinking water for 1 hour before the start of testing. After discharging any urine accumulated in the bladder by gently stimulating the lower abdomens of the animals, the drug was administered subcutaneously. After 30 minutes, the animals were then forcibly given 20 ml/kg of physiological saline orally. The animals were placed in metabolic cages immediately after administration of the drug (2 animals/cage) and urine output for 5 hours after loading with physiological saline was measured. Drug efficacy was expressed in the form of those doses resulting in urine outputs of 200 and 500, respectively, when the urine output of a non-dosed group was taken to be 100. Those doses were expressed as the ED200 and ED500 values, respectively.

δ receptor = biological target: T2, δ receptor (Mus musculus, UniProt P32300); design: species or system male ddy mouse; conditions: mouse vas deferens, δ, NTI added
T2 construct: The vas deferens extracted from the animal was suspended in a Magnus tube; from tissue; host or cells: mouse (male ddy) vas deferens
T2 sequence (P32300 whole entry): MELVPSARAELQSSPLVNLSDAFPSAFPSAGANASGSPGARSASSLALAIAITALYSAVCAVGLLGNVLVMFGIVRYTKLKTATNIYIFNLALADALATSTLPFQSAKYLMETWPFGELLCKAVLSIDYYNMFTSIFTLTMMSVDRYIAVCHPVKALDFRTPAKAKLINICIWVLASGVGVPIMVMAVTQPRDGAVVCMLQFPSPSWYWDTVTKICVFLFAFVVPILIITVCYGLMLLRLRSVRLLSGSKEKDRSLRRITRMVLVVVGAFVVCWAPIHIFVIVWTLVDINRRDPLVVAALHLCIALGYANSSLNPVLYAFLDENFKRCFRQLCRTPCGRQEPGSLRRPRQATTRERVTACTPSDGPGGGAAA

[4] = Mus musculus, sc, read-out: ED50

| Compound | IC50 [1] [nM] | receptor selectivity of agonist (κ) (κ receptor) | Ke, norBNI (κ receptor) [nM] | ED50 [2, 4] [mg/kg] | ED (200% urine output) [3] [mg/kg] | ED (500% urine output) [3] [mg/kg] | Ke, NTI (δ receptor) [nM] | analgesic activity ([2]; s.c., in words) | Diuretic action (in words) ([3]; s.c., from ED200 values) | ED50 [2] [mg/kg] |
| --- | --- | --- | --- | --- | --- | --- | --- | --- | --- | --- |
| CN(C(=O)CC(=O)c1ccccc1)[C@@H]1CC[C@@]2(O)[C@H]3Cc4ccc(O)c5c4[C@@]2(CCN3CC2CC2)[C@H]1O5 [Compound 103, 17-cyclopropylmethyl-3,14β-dihydroxy-4,5α-epoxy-6β-(N-methylbenzoylacetamido)morphinan.cndot.tartrate] | 11 | selective agonists for κ receptors | 0.657 | 0.069 | 0.0827 | 5.65 |  |  |  |  |
| CN(C(=O)/C=C/c1ccc(Cl)c(Cl)c1)[C@H]1CC[C@@]2(O)[C@H]3Cc4ccc(O)c5c4[C@@]2(CCN3CC2CC2)[C@H]1O5 [Compound 86, 17-cyclopropylmethyl-3,14β-dihydroxy-4,5α-epoxy-6α-(N-methyl-3,4-dichlorocinnamamido)morphinan.cndot.hydrochloride] |  |  |  | 0.0347 | 0.0057 | 0.229 |  |  |  |  |
| CN(C(=O)/C=C/c1ccsc1)[C@H]1CC[C@@]2(O)[C@H]3Cc4ccc(O)c5c4[C@@]2(CCN3CC2CC2)[C@H]1O5 [Compound 91, 17-cyclopropylmethyl-3,14β-dihydroxy-4,5α-epoxy-6α-[N-methyl-trans-3-(3-thienyl)acrylamido]morphinan.cndot.tartrate] | 0.378 | selective agonists for κ receptors | 0.699 | 0.019 | 0.0094 | 0.96 | 450 |  |  |  |
| CN(C(=O)/C=C/c1ccc(Br)cc1)[C@@H]1CC[C@@]2(O)[C@H]3Cc4ccc(O)c5c4[C@@]2(CCN3CC2CC2)[C@H]1O5 [Compound 156, 17-cyclopropylmethyl-3,14β-dihydroxy-4,5α-epoxy-6β-(N-methyl-4-bromocinnamamido)morphinan hydrobromide] |  | selective agonists for κ receptors | 0.091 | 0.0056 | 0.00545 | 0.355 |  |  |  |  |
| CN(C(=O)Cc1cccc(F)c1)[C@H]1CC[C@@]2(O)[C@H]3Cc4ccc(O)c5c4[C@@]2(CCN3CC2CC2)[C@H]1O5 [Compound 37, 17-cyclopropylmethyl-3,14β-dihydroxy-4,5α-epoxy-6α-(N-methyl-3-fluorophenylacetamido)morphinan.cndot.hydrochloride] |  |  |  | 0.0041 | 0.365 |  |  |  |  |  |
| CCCCCC(=O)N(C)[C@@H]1CC[C@@]2(O)[C@H]3Cc4ccc(O)c5c4[C@@]2(CCN3CC2CC2)[C@H]1O5 [Compound 62, 17-cyclopropylmethyl-3,14β-dihydroxy-4,5α-epoxy-6β-(N-methylhexanamido)morphinan.cndot.tartrate] | 14.7 | selective agonists for κ receptors | 0.203 | 0.077 | 0.101 | 7.04 | 90.2 |  |  |  |
| CCCCCCC(=O)N(C)[C@H]1CC[C@@]2(O)[C@H]3Cc4ccc(O)c5c4[C@@]2(CCN3CC2CC2)[C@H]1O5 [Compound 46, 17-cyclopropylmethyl-3,14β-dihydroxy-4,5α-epoxy-6α-(N-methylheptanamido)morphinan.cndot.hydrochloride] | 1.05 | selective agonists for κ receptors | 0.440 | 0.013 |  |  |  |  |  |  |
| C/C=C/C=C/C(=O)N(C)[C@@H]1CC[C@@]2(O)[C@H]3Cc4ccc(O)c5c4[C@@]2(CCN3CC2CC2)[C@H]1O5 [Compound 178, 17-cyclopropylmethyl-3,14β-dihydroxy-4,5α-epoxy-6β-(N-methyl-trans,trans-2,4-hexadienoylamido)morphinan tartrate] |  |  |  | 0.0016 | 0.00094 | 0.0045 |  | particularly strong analgesic activity | extremely strong diuretic action |  |
| COc1cccc(C#CC(=O)N(C)[C@H]2CC[C@@]3(O)[C@H]4Cc5ccc(O)c6c5[C@@]3(CCN4CC3CC3)[C@H]2O6)c1.O=C(O)C(O)C(O)C(=O)O [Compound 184, 17-cyclopropylmethyl-3,14β-dihydroxy-4,5α-epoxy-6α-[N-methyl-3-(3-methoxyphenyl)propiolamido]morphinan tartrate] |  |  |  | 0.0043 | 0.00444 | 0.0326 |  |  |  |  |
| CN(C(=O)c1ccc(Cl)c(Cl)c1)[C@H]1CC[C@@]2(O)[C@H]3Cc4ccc(O)c5c4[C@@]2(CCN3CC2CC2)[C@H]1O5 [Compound 27, 17-cyclopropylmethyl-3,14β-dihydroxy-4,5α-epoxy-6α-(N-methyl-3,4-dichlorobenzamido)morphinan.cndot.hydrochloride] |  |  |  | 0.046 | 0.0248 | 2.08 |  |  |  |  |
| CN(C(=O)/C=C/c1cccc(F)c1)[C@@H]1CC[C@@]2(O)[C@H]3Cc4ccc(O)c5c4[C@@]2(CCN3CC2CC2)[C@H]1O5 [Compound 102, 17-cyclopropylmethyl-3,14β-dihydroxy-4,5α-epoxy-6β-(N-methyl-3-fluorocinnamamido)morphinan.cndot.tartrate] | 1.6 | selective agonists for κ receptors | 2.37 | 0.0019 | 0.0014 | 0.0154 | 276 |  |  |  |
| CN(C(=O)/C=C/c1ccco1)[C@@H]1CC[C@@]2(O)[C@H]3Cc4ccc(O)c5c4[C@@]2(CCN3CC2CC2)[C@H]1O5 [Compound 70, 17-cyclopropylmethyl-3,14β-dihydroxy-4,5α-epoxy-6β-[N-methyl-trans-3-(2-furyl)acrylamido]morphinan.cndot.hydrochloride] | 0.545 | selective agonists for κ receptors | 0.198 | 0.0016 |  |  |  |  |  |  |
| CN(C(=O)Cc1csc2ccccc12)[C@H]1CC[C@@]2(O)[C@H]3Cc4ccc(O)c5c4[C@@]2(CCN3CC2CC2)[C@H]1O5 [Compound 107, 17-cyclopropylmethyl-3,14β-dihydroxy-4,5α-epoxy-6α-(N-methyl-3-benzo[b]thienylacetamido)morphinan.cndot.hydrochloride] |  |  |  | 0.023 | 0.0061 | 0.2 |  |  |  |  |
| CN(C(=O)CC(=O)c1ccccc1)[C@H]1CC[C@@]2(O)[C@H]3Cc4ccc(O)c5c4[C@@]2(CCN3CC2CC2)[C@H]1O5 [Compound 98, 17-cyclopropylmethyl-3,14β-dihydroxy-4,5α-epoxy-6α-(N-methylbenzoylacetamido)morphinan.cndot.tartrate] | 1.3 | selective agonists for κ receptors | 1.35 |  | 0.0065 | 0.206 |  |  |  | 0.0068 |
| CN(C(=O)Cc1ccc(F)c(F)c1)[C@H]1CC[C@@]2(O)[C@H]3Cc4ccc(O)c5c4[C@@]2(CCN3CC2CC2)[C@H]1O5 [Compound 105, 17-cyclopropylmethyl-3,14β-dihydroxy-4,5α-epoxy-6α-(N-methyl-3,4-difluorophenylacetamido)morphinan.cndot.hydrochloride] |  |  |  | 0.098 | 0.019 | 3.3 |  |  |  |  |
| CN(C(=O)Cc1cccc([N+](=O)[O-])c1)[C@H]1CC[C@@]2(O)[C@H]3Cc4ccc(O)c5c4[C@@]2(CCN3CC2CC2)[C@H]1O5 [Compound 83, 17-Cyclopropylmethyl-3,14β-dihydroxy-4,5α-epoxy-6α-(N-methyl-3-nitrophenylacetamido)morphinan.cndot.hydrochloride] |  |  |  | 0.008 | 0.0261 | 2.99 |  |  |  |  |
| CN(C(=O)/C=C/C1CCCCC1)[C@H]1CC[C@@]2(O)[C@H]3Cc4ccc(O)c5c4[C@@]2(CCN3CC2CC2)[C@H]1O5 [Compound 50, 17-cyclopropylmethyl-4,5α-epoxy-3,14β-dihydroxy-6α-(N-methyl-trans-3-cyclohexylacrylamido)morphinan.cndot.hydrochloride] |  |  |  | 0.011 | 0.0021 | 0.0325 |  |  |  |  |
